According to a melting point compilation (Tetko et al.; mined from patent text by program, amines drawn as free bases though some values may be those of a salt):

SMILES	melting point [°C]
Cc1nn(C)c(Cl)c1C(=O)Nc1ccccc1	157 to 159
C=C(F)CONC(=O)c1nc(-c2ccc(Cl)c(OC)c2F)cc(N)c1Cl	172 to 174
Oc1nc(-c2ccc(F)cc2)c(CCN2CCC(=Cc3cccc(F)c3)CC2)s1	140 to 142
CN1CCN(C2=Nc3cc(Cl)ccc3N3CCc4cccc2c43)CC1	154 to 156
CC(C)(C)OC(=O)NCC1=C(CC(=O)O)CC=CC1	183
CC(C)(C)OC(=O)N1CCN(c2ccc(S(=O)(=O)c3ccccc3)c(N)c2)CC1	135 to 137
O=C1CCC(c2ccc(-c3ccccc3F)cc2)O1 (stereo not given)	74 to 75
CCN(CC)CCNC(=O)c1cc(Cl)c(N)cc1OCC(=O)N1CCCC1	160 to 162
COc1cc(OC)c(C2=CCN(C)CC2)c(O)c1C(C)=O	143 to 144
CC(C)(Cc1ccccc1)C(NC(=O)c1cccc(Cl)c1)Nc1c(Nc2cccnc2)c(=O)c1=O (single isomer, unassigned; (-))	178 to 179
COc1cc2oc(=O)c(CCN3CCC(c4ccccc4)CC3)c(C)c2c(OC)c1OC	117 to 118
COc1cc2c(Nc3ccc(Cl)cc3F)ncnc2cc1O	141 to 143
NS(=O)(=O)c1ccc(-c2[nH]c3ccccc3c2-c2ccc(O)cc2)cc1	241 to 243
C#CCNC(=O)c1ncn2c1[C@@H]1CCCN1Cc1c(Cl)cccc1-2	233 to 235
Cc1ccc2c(Br)c(Cl)cc([N+](=O)[O-])c2n1	141 to 142
CC(C)CCn1c(=O)c2c(Cl)cc(Cl)cc2n(Cc2ccccc2)c1=O	89 to 92
CS(=O)(=O)N1CCN([C@@H](CNC(=O)c2ccc(OCc3ccc(F)cc3)cc2)C(=O)NO)CC1	194
NN=c1[nH]c2ccc(Br)cc2cc1[N+](=O)[O-]	187
CC1(C)Oc2cc(N)c(C#N)cc2[C@@H](N2CCCC2)[C@@H]1O (relative stereo)	158 to 160
CC1CCCC(C)N1Cc1ccc(COc2cccc3c2CN(C2CCC(=O)NC2=O)C3=O)cc1 (stereo not given)	205 to 207
Cc1c(Cl)nnc(Cl)c1C(C)(C)CCl	56 to 58
CCC(=O)c1cc2c(Cl)cccc2s1	96 to 98
COc1cccc(S(=O)(=O)c2ccc3c(c2)c(CCN(C)C(=O)OC(C)(C)C)c(C)n3C)c1	123 to 127
O=c1c2ccccc2ccc2cc(CCO)ccc12	73 to 75
c1ccc(COc2cccnc2Cn2ccnc2)cc1	73 to 74

SMILES	melting point [°C]
CC(C)c1cc(C(=O)O)cc(C(C)C)c1O	147
CC1(C)CC(=O)C(C(=O)Nc2cccc([N+](=O)[O-])c2)C(=O)O1 (stereo not given)	138 to 140
COc1ccc2ccn(CC(N)=O)c2c1	210 to 211
Cc1ccc(C(=O)C2=C(O)C(=O)N(c3ncc(S(=O)(=O)c4ccc([N+](=O)[O-])cc4)s3)C2c2cccnc2)cc1 (stereo not given)	211
Nc1nc(/C=C/c2ccc([N+](=O)[O-])cc2)cs1	278
CCCCCCC(C(=O)N1CCC[C@H]1C(=O)O)n1cnc2cc(-c3ccccc3-c3nn[nH]n3)ccc21 (stereo not given in full)	145 to 150
O=c1c2cccnc2c(-c2ccccc2)cn1Cc1ccccc1	166 to 167
N#Cc1c(SC(F)(F)F)c(NC(=O)C(F)(F)F)n(-c2c(Cl)cc(C(F)(F)F)cc2Cl)c1Cl	190
N#Cc1cnc(Nc2ccc(F)cc2)nc1-c1ccc(N)nc1	289
Clc1ccc(-c2cc(C3CCN(Cc4ccc(Cl)c(Cl)c4)CC3)n[nH]2)cc1	171 to 174
CN(Cc1cccc2c1CN(C1CCC(=O)NC1=O)C2=O)C(=O)Nc1ccc2ccccc2c1 (stereo not given)	216 to 218
CS(=O)(=O)Nc1cc(NC(=O)CC(=O)C(F)(F)F)c(F)cc1C#N	186 to 191
CC(C)C1(C)N=C(c2nc3sccc3cc2C(=O)O)NC1=O (stereo not given)	221 to 223
CCCC1=NN(c2ccncc2)C(=O)C1=CNc1ccccc1CC	159
CCN1CCN(C(=O)c2ccc(C(=O)N3CCN(c4ncccc4NC(C)C)CC3)cc2)CC1	130 to 131
COc1c(C(N)=O)oc2c3ccccc3n(C)c12	174 to 177
CCCCc1oc2ccccc2c1C(=O)Nc1ccc2cc(O)ccc2c1	162 to 164
CCN(CC)CCOC(=O)c1ccc(NC(=O)c2ccc(-c3ccccc3)cc2)cc1	146 to 149
O=C(NC1CCCCC1)NS(=O)(=O)c1ccc2c(c1)CCN(C(=O)N1CCCC1)CC2	139 to 141
N#CN=C(Nc1ccccc1)Nc1ccc(C#N)cc1O	270 to 271
CCCc1c(OCCCCCCc2cc(C)c(O)c(O)c2C)ccc(C(=O)O)c1O	170 to 171
Cc1ccnc(C(=O)c2[nH]c3ccc(Cl)cc3c2CC(=O)NCCN)c1	166
O=C(O)C(=O)c1ccc(OCCOc2ccc(F)cc2)cc1	97 to 98
CCCOC(OCCC)P(=O)(O)CCCN	223 to 225
CCCCCCCNC(=O)Oc1ccc2c(c1)CCCN2	67

SMILES	melting point [°C]
O=C(CN1CCC(CN2C(=O)c3ccccc3C2=O)CC1)c1ccc(F)cc1	110 to 113
CCCCn1c(C)c(C)cc(O)c1=O	112 to 116
Cc1ccc(Nc2ncc(C#N)c(-c3ccc(C(C)(C)N)cc3)n2)cc1F	209
Cc1cc(SCc2cccc3nn(-c4ccc(C(F)(F)F)cc4)cc23)ccc1OC(C)(C)C(=O)O	125 to 127
O=C(NCc1ccc(F)cc1)c1sc2ccccc2c1Br	120 to 125
CC(C)(C)c1cc(C=C2NC(=O)NC2=O)cc(C(C)(C)C)c1O	251 to 252
CON1C=Cc2ccccc2C1	113 to 114
COc1ccc2ccc(NC(=O)c3cccc(O)c3)nc2n1	295
CC(C)CC(C#N)(C#N)Cc1ccc(Cl)cc1	73.2
Fc1ccc(COc2cccnc2NC(=S)Nc2ccc(Cl)cc2)c(F)c1	154 to 156
O=C(Nc1ccc(-n2cccn2)c(F)c1)OCc1ccccc1	82 to 83
NC(=O)CCc1conc1-c1ccc(Cl)cc1	158 to 159
CN1CCc2ccn(S(=O)(=O)c3ccccc3)c2C(c2ccccc2)C1 (stereo not given)	115 to 116
CCOC(=O)C(=CNc1ccc(OCC)nc1)C(=O)OCC	68 to 71
Nc1cc(OCCC2CCCCC2)nc(N)n1	142
O=C(OCc1cccc(Cl)c1)c1ncn2c1[C@@H]1CCCN1C(=O)c1c(Cl)cccc1-2	114 to 116
COc1ccc(C(C)(C)C)cc1C=Cc1ccc(CCl)cc1	103 to 104
COc1ccc(-c2cnn3c(N)c(-c4cccc(Cl)c4)c(CF)nc23)cc1OC	228 to 230
CS(=O)(=O)Nc1ccc(CCNC(=O)c2cc3cc(O)ccc3cc2O)cc1	176 to 178
Cc1ncccc1O[C@@H]1COc2ccc(OCc3ccccc3)cc2[C@@H]1O (relative stereo)	133 to 134
O=C(Nc1ccc(-n2nc(-c3ccccc3)c3cccnc32)cc1)C(F)(F)F	172 to 174
CNC(=O)c1c(SC)c2cc(OC)ccc2n1C	137 to 139
CCCc1nc2c(N)nc3cc(OCCCNC(=O)OC(C)(C)C)ccc3c2s1	146 to 149
CCOC(=O)Nc1ccc2c(c1)C(c1ccccc1Cl)=CCC(=O)N2	241
COc1ccc(-c2cc(-c3ccccc3)nc(C)c2C(=O)O)cc1OC	208

SMILES	melting point [°C]
Cc1cc(N(C)C)cc(C)c1NC(NCCCCCCCc1ccc(C(C)(C)C)cc1)=C1C(=O)COC1=O	144 to 147
Cc1ccc(S(=O)(=O)c2ccc(C)cc2CC(Cl)(Cl)C#N)c(CC(Cl)(Cl)C#N)c1	71 to 72
Cc1ccc(-c2cn(C)cc(-c3ccc(Cl)c(Cl)c3)c2=O)cc1C	150 to 152
CNC(=O)C(=NO)c1ccccc1C	160 to 161
COC(=O)CC/C(C)=C/Cc1c(NC(=O)C(F)(F)F)c2c(c(C)c1OC)COC2=O	107 to 109
CCOCc1nc2c(N)nc3cc(OCc4ccccc4)ccc3c2n1CC(C)(C)O	215 to 216
O=C1NC(=O)c2c1ccc1[nH]c3ccc(O)cc3c21	335 to 345
CC(C)c1cc(C(C)C)c(CC(=O)NS(=O)(=O)Oc2c(C(C)C)cc([N+](=O)[O-])cc2C(C)C)c(C(C)C)c1	85 to 89
COc1ccc(-c2ccc(C(=O)Nc3ccc4cc(CN5CCCC5)cnc4c3C)cn2)cc1	180 to 182
COC(=O)CCc1cnoc1-c1ccc(-c2ccccc2)cc1	103 to 104
CCOC(=O)C(=O)Nc1cnccn1	134 to 137
O=C(c1ccc2scnc(=O)c2c1)N1CCCC1	232 to 234
CSc1ccc(C=CC(=O)c2ccc(N(C)C)cc2)cc1	150
COc1cc(CBr)ccc1[N+](=O)[O-]	98
O=C(COc1cc(-c2ccccc2)nc2ccccc12)N1CCOCC1	145
CC1=NC(NC(=O)Nc2cccc(C)c2)C(=O)N(CC(=O)N2CCN(CCO)CC2)c2c(C)cccc21 (stereo not given)	222 to 224
COc1cc(C2c3cc4c(cc3C(NC3=C(C)C(=O)N(C)C3=O)C3COC(=O)C23)OCO4)cc(OC)c1O (stereo not given)	172 to 176
CCCCCCCCOC(=O)/C=C/c1ccccc1C1C(C(=O)OCC)=C(C)NC(C)=C1C(=O)OCC	110 to 112
COC(=O)C(CC(F)(F)F)Nc1nc(-c2ccc(Br)cc2)cs1 (stereo not given)	113 to 114
COC(=O)CC(C(OC)OC)C(C)(C)S(=O)(=O)c1ccc(C)cc1 (stereo not given)	110
CC(C)Oc1ccc(CCCOc2nn(C)cc2CC(=O)O)c(OCc2ccc(Cl)cc2Cl)c1	102 to 103
Cc1nn(-c2c(Cl)cc(C(F)(F)F)cc2Cl)nc1C=NC(C#N)=C(N)C#N	238 to 239
Cc1nn(-c2c(Cl)cc(C(F)(F)F)cc2Cl)c(N)c1C=O	169 to 172
O=C=NC(=O)CS(=O)(=O)c1ccc2ccccc2c1	152 to 155
CCNC(=O)c1c(F)cccc1S(=O)C(C)(C)C (stereo not given)	114 to 116
